# Biological target: NSP14 (Severe acute respiratory syndrome coronavirus 2, UniProt P0DTD1)
# Test: NSP14 MTase inhibition assay at 37° C. (MTase-Glo SAH detection)
# Assay type: biochemical, SARS-CoV-2
# Conditions: 0.3 nM NSP14, 2.5 μM SAM, 2.5 μM GpppA RNA, 45 min at 37° C.; read-out: Nsp14 Mtase Inh. IC50
# Procedure: NSP14 MTase assay at 37° C. (0.3 nM NSP14 as final enzyme concentration)
# The NSP14 MTase assay at 37° C. is carried out in 384-well flat bottom polystyrene microplates (Greiner, 781075). Per well, 10 μl of 1×NSP14 reaction buffer (50 mM Tris-HCl, pH 7.5, 6 mM KCl, 1.25 mM MgCl2, 1 mM DTT, and 0.01% Tween-20) are dispensed in columns 1-23 using a Thermo Multidrop Combi dispenser (Thermo Scientific). 0.1 μl of serially diluted compounds in DMSO are dispensed into columns 1-22 of the assay microplates with a Janus 384 MDT NanoHead (PerkinElmer). In wells of column 23, which serve as negative controls, no compounds are added.
# The NSP14 reaction is started by adding 4 μl of a 4× substrate solution containing S-adenosyl methionine (SAM, 10 μM) and GpppA RNA (10 μM) prepared in 1×NSP14 reaction buffer. Any addition of reagents is followed by a 30 second centrifugation at 500×g to ensure that all liquid was collected at the bottom of the well. The final concentrations of NSP14, SAM, and GpppA RNA are 0.3 nM, 2.5 μM, and 2.5 μM, respectively. The final reaction volume is 16 μl. Plates are sealed and incubated for 45 min at 37° C.
# For SAH detection, 1 μl 5× MTase-Glo™ Reagent (Promega) is added to each well, plates are mixed for 1-2 minutes and incubated at room temperature for 30 minutes. 5 μl of room-temperature MTase-Glo™ Detection Solution (Promega) is added to each well, plates are mixed for 1-2 minutes and incubated at room temperature for 30 minutes. Luminescence signals of each well are recorded in relative light units (RLUs) using a Biotek Synergy Neo plate reader (BioTek, Winooski, VT). The SAH production is normalized against the positive control (PK, column 24) and negative control (NK, column 23) as follows: normalized % inhibition=100×(RLUsample-RLUaverageNK)/(RLUaveragePK-RLUaverageNK).
row,Structure (SMILES),IC50
1,Cc1c(S(=O)(=O)c2ccc3[nH]ncc3c2)cc(C(=O)N[C@@H]2CCN(c3cccn4nccc34)C2)n1C [A.59],0.18 nM
2,Cc1c(S(=O)(=O)c2ccc3[nH]ncc3c2)cc(C(=O)N[C@@H]2CCN(c3ccn4nccc4c3)C2)n1C [A.60],0.28 nM
3,Cc1c(S(=O)(=O)c2ccc3[nH]ncc3c2)cc(C(=O)N[C@@H]2CCN(c3cccc4c3cnn4C)C2)n1C [A.61],0.39 nM
4,Cc1c(S(=O)(=O)c2ccc3[nH]ncc3c2)cc(C(=O)N[C@H]2CN(c3ncc(F)cn3)CC23CC3)n1C [A.62],0.41 nM
5,Cc1c(S(=O)(=O)c2cc(C#N)c3[nH]ncc3c2)cc(C(=O)N[C@@H]2CCN(c3ncc(F)cn3)C2)n1C [A.63],0.46 nM
6,Cc1c(S(=O)(=O)c2ccc3[nH]ncc3c2)cc(C(=O)N[C@@H]2CCN(c3ncccn3)C2)n1C [A.64],0.78 nM
7,Cc1c(S(=O)(=O)c2ccc3[nH]ncc3c2)cc(C(=O)N[C@@H]2CCN(c3ccc(C(F)(F)F)cn3)C2)n1C [A.65],1 nM
8,Cc1c(S(=O)(=O)c2ccc3[nH]ncc3c2)cc(C(=O)N[C@@H]2CCN(c3nccc(C(F)(F)F)n3)C2)n1C [A.66],0.81 nM
9,Cc1c(S(=O)(=O)c2cc(F)c3[nH]nc(F)c3c2)cc(C(=O)N[C@@H]2CCN(c3ncc(F)cn3)C2)n1C [A.67],0.38 nM
10,O=C(N[C@@H]1CCN(c2ncc(F)cn2)C1)c1cc(S(=O)(=O)c2ccc3[nH]ncc3c2)c2n1CCC2 [A.68],0.36 nM
11,Cc1c(S(=O)(=NCC2CC2)c2ccc3[nH]ncc3c2)cc(C(=O)N[C@@H]2CCN(c3ncc(F)cn3)C2)n1C (stereo partly shown) [A.69],8.7 nM
12,CN=S(=O)(c1ccc2[nH]ncc2c1)c1cc(C(=O)N[C@@H]2CCN(c3ncc(F)cn3)C2)n(C)c1C (stereo partly shown) [A.70],3.9 nM
13,Cc1c(S(=O)(=O)c2ccc3[nH]ncc3c2)cc(C(=O)N[C@@H]2CCN(c3cnccn3)C2)n1C [A.71],0.55 nM
14,Cc1c(S(=O)(=O)c2ccc3[nH]ncc3c2)cc(C(=O)N[C@@H]2CCN(c3ccc(C#N)cn3)C2)n1C [A.72],0.29 nM
15,Cc1c(S(=O)(=O)c2ccc3[nH]ncc3c2)cc(C(=O)N[C@@H]2CCN(c3cncnc3)C2)n1C [A.73],0.41 nM
16,Cc1c(S(=O)(=O)c2ccc3[nH]ncc3c2)cc(C(=O)N[C@@H]2CCN(c3cc(C(F)(F)F)ccn3)C2)n1C [A.74],0.57 nM
17,Cc1nc(N2CC[C@@H](NC(=O)c3cc(S(=O)(=O)c4ccc5[nH]ncc5c4)c(C)n3C)C2)nc(C)c1F [A.75],0.51 nM
18,Cc1c(S(=O)(=O)c2ccc3[nH]ncc3c2)cc(C(=O)N[C@@H]2CCN(c3ccc(C(F)(F)F)nn3)C2)n1C [A.76],0.44 nM
19,Cc1c(S(=O)(=O)c2ccc3[nH]ncc3c2)cc(C(=O)NC2CCCN(c3ncc(F)cn3)C2)n1C (stereo not shown) [A.77],7.9 nM
20,Cc1c(S(=O)(=O)c2ccc3[nH]ncc3c2)cc(C(=O)N[C@@H]2CCN(c3ccnnc3)C2)n1C [A.78],0.53 nM
21,Cc1c(S(=O)(=O)c2ccc3[nH]ncc3c2)cc(C(=O)N[C@@H]2CCN(c3cc(C#N)ccn3)C2)n1C [A.79],0.6 nM

row,Structure (SMILES),IC50
1,Cc1c(S(=O)(=O)c2ccc3[nH]ncc3c2)cc(C(=O)N[C@@H]2CCN(c3ncccc3C(F)(F)F)C2)n1C [A.80],1.5 nM
2,Cc1c(S(=O)(=O)c2ccc3[nH]ncc3c2)cc(C(=O)N[C@@H]2CCN(c3ccc(F)cc3)C2)n1C [A.81],0.58 nM
3,Cc1c(S(=O)(=O)c2ccc3[nH]ncc3c2)cc(C(=O)N[C@@H]2CCN(c3ccc(F)cc3C#N)C2)n1C [A.82],0.45 nM
4,Cc1c(S(=O)(=O)c2ccc3[nH]ncc3c2)cc(C(=O)N[C@@H]2CCN(c3ccccc3C#N)C2)n1C [A.83],0.84 nM
5,Cc1c(S(=O)(=O)c2ccc3[nH]ncc3c2)cc(C(=O)N[C@@H]2CCN(c3cccc(C#N)c3)C2)n1C [A.84],< 0.15 nM
6,Cc1c(S(=O)(=O)c2ccc3[nH]ncc3c2)cc(C(=O)N[C@@H]2CCN(c3ccccc3OC(F)(F)F)C2)n1C [A.85],27 nM
7,Cc1c(S(=O)(=O)c2ccc3[nH]ncc3c2)cc(C(=O)N[C@@H]2CCN(c3cccc(C(F)F)c3)C2)n1C [A.86],2.5 nM
8,Cc1c(S(=O)(=O)c2ccc3[nH]ncc3c2)cc(C(=O)N[C@@H]2CCN(c3cccc(F)c3)C2)n1C [A.87],0.75 nM
9,COc1ccc(N2CC[C@@H](NC(=O)c3cc(S(=O)(=O)c4ccc5[nH]ncc5c4)c(C)n3C)C2)nn1 [A.88],< 0.15 nM
10,Cc1c(S(=O)(=O)c2ccc3[nH]ncc3c2)cc(C(=O)N[C@H]2CN(c3ncc(F)cn3)C[C@H]2O)n1C [A.89],14 nM
11,Cc1c(S(=O)(=O)c2ccc3[nH]ncc3c2)cc(C(=O)N[C@@H]2CCN(c3ncc(F)cn3)C2)n1CCO [A.90],< 0.15 nM
12,COCCn1c(C(=O)N[C@@H]2CCN(c3ncc(F)cn3)C2)cc(S(=O)(=O)c2ccc3[nH]ncc3c2)c1C [A.91],0.17 nM
13,Cc1c(S(=O)(=O)c2ccc3[nH]ncc3c2)cc(C(=O)N[C@@H]2CCN(c3ccnc(C(F)(F)F)n3)C2)n1C [A.92],< 0.15 nM
14,Cc1c(S(=O)(=O)c2ccc3[nH]ncc3c2)cc(C(=O)N[C@@H]2CCN(c3ccncn3)C2)n1C [A.93],0.2 nM
15,Cc1c(S(=O)(=O)c2ccc3[nH]ncc3c2)cc(C(=O)N[C@@H]2CCN(c3cc(C(F)(F)F)ncn3)C2)n1C [A.94],0.15 nM
16,Cc1c(S(=O)(=O)c2ccc3[nH]ncc3c2)cc(C(=O)N[C@@H]2CCN(c3cnccc3C#N)C2)n1C [A.95],< 0.15 nM
17,Cc1c(S(=O)(=O)c2ccc3[nH]ncc3c2)cc(C(=O)N[C@@H]2CCN(c3cc(F)cc(F)c3)C2)n1C [A.96],0.85 nM
18,Cc1c(S(=O)(=O)c2ccc3[nH]ncc3c2)cc(C(=O)N[C@H]2C[C@@H](Nc3ncc(F)cn3)C2)n1C [A.97],13 nM
19,Cc1c(S(=O)(=O)c2ccc3[nH]ncc3c2)cc(C(=O)N[C@H]2C[C@@H](N(C)c3ncc(F)cn3)C2)n1C [A.98],0.39 nM
20,Cc1c(S(=O)(=O)c2ccc3[nH]ncc3c2)cc(C(=O)N[C@@H]2CCN(c3cccnn3)C2)n1C [A.99],0.38 nM
21,Cc1c(S(=O)(=O)c2ccc3[nH]ncc3c2)cc(C(=O)N[C@@H]2CCN(c3cccc(C(F)(F)F)c3)C2)n1C [A.100],2.9 nM

row,Structure (SMILES),IC50
1,Cc1c(S(=O)(=O)c2ccc3[nH]ncc3c2)cc(C(=O)N[C@@H]2CCN(Cc3ccc(C#N)cc3)C2)n1C [A.101],26 nM
2,Cc1c(S(=O)(=NCCO)c2ccc3[nH]ncc3c2)cc(C(=O)N[C@@H]2CCN(c3ncc(F)cn3)C2)n1C (stereo partly shown) [A.102],0.46 nM
3,Cc1c(S(=O)(=O)c2ccc3[nH]ncc3c2)cc(C(=O)N[C@@H]2CCN(c3ccccc3C(F)(F)F)C2)n1C [A.103],5.1 nM
4,Cc1c(S(=O)(=O)c2ccc3[nH]ncc3c2)cc(C(=O)N[C@@H]2CCN(Cc3ccc(F)cn3)C2)n1C [A.104],4.3 nM
5,Cc1c(S(=O)(=O)c2ccc3[nH]ncc3c2)cc(C(=O)N[C@@H]2CCN(Cc3ccc(C#N)cn3)C2)n1C [A.105],14 nM
6,Cc1c(S(=O)(=O)c2cc(Cl)c3[nH]ncc3c2)cc(C(=O)N[C@@H]2CCN(c3ccc(C#N)cn3)C2)n1C [A.106],< 0.15 nM
7,Cc1c(S(=O)(=O)c2ccc3[nH]ncc3c2)cc(C(=O)N[C@@H]2CCN(c3ccnc(C(F)F)c3)C2)n1C [A.107],0.17 nM
8,Cc1c(S(=O)(=O)c2ccc3[nH]ncc3c2)cc(C(=O)N[C@@H]2CCN(c3ccc(C#N)c(C#N)c3)C2)n1C [A.108],< 0.15 nM
9,Cc1c(S(=O)(=O)c2ccc3[nH]ncc3c2)cc(C(=O)N[C@@H]2CCN(c3cccc(C#N)c3C#N)C2)n1C [A.109],< 0.15 nM
10,Cc1c(S(=O)(=O)c2ccc3[nH]ncc3c2)cc(C(=O)N[C@H]2CN(c3ccc(C#N)cn3)CC23CC3)n1C [A.110],0.7 nM
11,Cc1c(S(=O)(=O)c2ccc3[nH]ncc3c2)cc(C(=O)N[C@@H]2CCN(c3cnn(C)c(=O)c3)C2)n1C [A.111],< 0.15 nM
12,Cc1c(S(=O)(=O)c2ccc3[nH]nc(F)c3c2)cc(C(=O)N[C@@H]2CCN(c3ccnnc3)C2)n1C [A.112],0.53 nM
13,COc1cnc(N2CC[C@@H](NC(=O)c3cc(S(=O)(=O)c4ccc5[nH]ncc5c4)c(C)n3C)C2)cn1 [A.113],< 0.15 nM
14,Cc1c(S(=O)(=O)c2ccc3[nH]ncc3c2)cc(C(=O)N[C@@H]2CCN(c3cnnc(Cl)c3)C2)n1C [A.118],< 0.15 nM
15,Cc1c(S(=O)(=O)c2cc(Cl)c3[nH]ncc3c2)cc(C(=O)N[C@@H]2CCN(c3ccnnc3)C2)n1C [A.119],0.37 nM
16,Cc1c(S(=O)(=O)c2ccc3[nH]ncc3c2)cc(C(=O)N[C@@H]2CCN(c3nccnc3C#N)C2)n1C [A.120],0.26 nM
17,Cc1c(S(=O)(=O)c2ccc3[nH]ncc3c2)cc(C(=O)N[C@@H]2CCN(c3ncncc3C#N)C2)n1C [A.121],0.3 nM
18,Cc1c(S(=O)(=O)c2ccc3[nH]ncc3c2)cc(C(=O)N[C@@H]2CCN(c3nccc(C(F)F)n3)C2)n1C [A.122],0.3 nM
19,Cc1c(S(=O)(=O)c2ccc3[nH]ncc3c2)cc(C(=O)N[C@@H]2CCN(c3ccc(C(F)(F)F)cc3)C2)n1C [A.123],8.6 nM

# Reference: patent US20260226034A1 (The Rockefeller University, priority 2023, published 2026)
